Assay results taken from US4365989A, “2-Thiocyanomethylthio-4,4-dialkyl-5-substituted-thiazoline fungicides” (Chevron Research Company, priority 1982, dated 1982).

Experiments:
Phytophthora infestans = assay: whole plant or invertebrate; assay type: in vivo; details: in Solanum lycopersicum, read-out: % Control Tom. L. Bl.
Septoria apii = assay type: in vivo; details: 250 ppm; celery (Utah) plants
Rhizoctonia solani = assay: Mycelial inhibition, Rhizoctonia; assay type: cell-based; details: 24 hours, relative to standard DIFOLATAN, read-out: Mycelial inhibition, % Standard, Rhizoc.
Protocol: (§1) A number of the compounds of the present invention were evaluated for in-vitro fungicidal effectiveness by means of a mycelial inhibition test. This test is designed to measure the fungitoxic activity of fungicidal chemicals in terms of their degree of inhibition of mycelium growth. Each compound to be tested was dissolved in acetone to 500 ppm concentration. Paper strips were infused with the particular mycelium growth by covering the paper with a potato dextrose broth culture of mycelial suspension. The papers were then placed on potato dextrose agar plates and sprayed by means of a microsprayer with the fungicidal solution. The treated paper strips were incubated at 25° C. and the data is taken after 24 hours. Fungicidal activities are measured by a zone of inhibited mycelial growth from the center of the paper strip. The effectiveness of the compounds tested for fungicidal activity is reported in Table IIa for those compounds which were effective in inhibiting mycelial growth. The activity is reported in terms of [formula]

Aspergillus Niger = assay: Mycelial inhibition, Aspergillus; assay type: cell-based; details: 24 hours, relative to standard DIFOLATAN, read-out: Mycelial inhibition, % Standard, Asper.
Protocol: as §1

[1] = test system: Mustard (Brassica arvensis); assay: Post-emergent herbicidal test, Mustard; assay type: in vivo; details: 504 h, post-emergence, 33 micrograms/cm^2, 3 weeks
[2] = test system: Crabgrass (Digitaria sanguinalis); assay: Post-emergent herbicidal test, Crabgrass; assay type: in vivo; details: 504 h, post-emergence, 33 micrograms/cm^2, 3 weeks
[3] = test system: Watergrass (Ethinochloa crusgalli); assay: Pre-emergent herbicidal test, Watergrass; assay type: in vivo; details: 504 h; pre-emergence; 33 micrograms/cm^2; 3 weeks
Protocol: (§2) An acetone solution of the test compound was prepared by mixing 750 mg of the compound, 220 mg of a nonionic surfactant and 25 ml of acetone. This solution was added to approximately 125 ml of water containing 156 mg of surfactant.
(§3) Seeds of the test vegetation were planted in a pot of […] and the test solution was sprayed uniformly onto the soil surface at a dose of 33 micrograms/cm^2. The pot was watered and placed in a greenhouse. […] At the end of this period, the herbicidal effectiveness of the compound was rated based on the physiological observations. A 0-to-100 scale was used, 0 representing no phytotoxicity, 100 representing complete kill.

Soybean = assay: Pre-emergent herbicidal test, Soybean; assay type: in vivo; details: Glycine max, 504 h; pre-emergence; 33 micrograms/cm^2; 3 weeks; read-out: Herbicidal Activity Pre-Emergence % Control Soybean
Protocol: as §2, §3

Spirulina maxima = assay: Algae control, Spirulina; assay type: cell-based; details: Limnospira maxima, 7 to 10 days, read-out: Algicidal Activity % Control Spirulina
Protocol: (§4) Representative compounds of the invention were tested as aquatic herbicides and algicides by the following method. The weed test species were Lemna minor, Elodea canadensis and the algae used was Spirulina maxima.
(§5) An acetone solution of the test compound and a small amount of an alkylarylpolyoxyethylene glycol-containing surfactant was prepared. This solution was mixed with a nutrient solution in quantity sufficient to give a concentration of 2 ppm. Eight oz. plastic cups were filled with 150 ml of this solution. A sample of the test, Lemna and Elodea, was added together to each cup. Forty ml of Spirulina culture with the 2 ppm treatment was placed in 11/2 oz plastic cups (#4 glass vials used after June 9, 1980). The containers were then placed in an illuminated environment maintained at a temperature of about 20° C. for incubation. The containers were observed periodically for growth (as compared to an untreated check). The effectiveness of the test compound was determined based on a final observation of growth after 7 to 10 days. The results of the test on a 0-to-100 basis--0 indicating no effectiveness and 100 indicating complete effectiveness--are reported in Table IV.

Lemna minor = assay: Aquatic weeds control, Lemna; assay type: in vivo; details: 7 to 10 days, read-out: Algicidal Activity % Control Lemna
Protocol: as §4, §5

Pythium Ultimum = assay: Mycelial inhibition, Pythium; assay type: cell-based; details: Globisporangium ultimum, 24 hours, relative to standard DIFOLATAN
Protocol: as §1

Piricularia oryzae = assay type: in vivo; details: 625 ppm; rice seedlings Calrose M-9

SMILES	pest or weed control at 250 ppm (Phytophthora infestans) [%]	% Control Cel. L. Bl. (Septoria apii) [%]	inhibition at 500 ppm (Rhizoctonia solani) [%]	inhibition at 500 ppm (Aspergillus Niger) [%]	pest or weed control at 33 µg/cm2 [1] [%]	pest or weed control at 33 µg/cm2 [2] [%]	pest or weed control at 33 µg/cm2 [3] [%]	plant injury at 33 µg/cm2 (Soybean) [%]	activity at 2 ppm (Spirulina maxima) [%]	activity at 2 ppm (Lemna minor) [%]	inhibition at 500 ppm (Pythium Ultimum) [%]	% Control Rice Blast (Piricularia oryzae) [%]
CC1(C)N=C(SCSC#N)SC1=CSc1ccc(Cl)cc1 [Compound 1, 2-thiocyanomethylthio-4,4-dimethyl-5-(4-chlorophenylthio)methylenethiazoline]	21	70	0	0	0	0	0	0	0	0	–	–
C=C1SC(SCSC#N)=NC1(C)C [Compound 7, 2-Thiocyanomethylthio-4,4-dimethyl-5-methylenethiazoline]	75	–	39	32	50	35	0	45	90	90	55	–
CC1(C)N=C(SCSC#N)SC1=C(Cl)Cl [Compound 2, 2-thiocyanomethylthio-4,4-dimethyl-5-dichloromethylenethiazoline]	0	35	71	107	63	25	0	0	45	50	–	–
CCC1(CC)N=C(SCSC#N)SC1=CBr [Compound 5, 2-thiocyanomethylthio-4,4-diethyl-5-bromo-methylenethiazoline]	20	96	82	50	35	30	0	0	40	0	0	90
C=C1SC(SCSC#N)=NC12CCCCC2 [Compound 8]	29	–	71	77	25	20	0	0	70	60	0	–
C=C1SC(SCSC#N)=NC1(CC)CC [Compound 6, 2-thiocyanomethylthio-4,4-diethyl-5-methylenethiazoline]	0	0	89	77	35	45	0	30	75	0	31	–
